US12263175B2, “Optimised dosage of diaminophenothiazines in populations” (WisTa Laboratories Ltd., priority 2018, dated 2025)

Assay: Treatment-emergent adverse events, three Phase 3 double-blind studies, LMTM pooled safety population
Type: in vivo, human
Excerpt: Three Phase 3, double-blind, controlled studies of LMTM have been completed (one each in subjects with mild and mild to moderate AD and one in subjects with bvFTD). Results of the AD studies have been published (Gauthier et al., 2016; Wilcock et al., 2018).
In these three studies, 1897 subjects received at least one dose of LMTM (Safety Population [Five additional subjects with AD, participating at one site in Study TRx-237-005, received a dose of study drug but were excluded from all analyses due to GCP violations], 1679 subjects with AD and 218 subjects with bvFTD). Of these, 860 subjects received the control (LMTM 8 mg/day, 750 with AD and 110 with bvFTD) and 1037 subjects received at least one dose of LMTM in the higher doses of 150 to 250 mg/day (929 with AD and 108 with bvFTD).
The incidence of the most common TEAEs are summarised by dose in the following Table EX1. This includes TEAEs that occurred at an incidence of ≥2.0% either in subjects randomised to LMTM 8 mg/day or higher doses (150 to 250 mg/day). The subset of TEAEs that were severe in intensity are also included.
The TEAEs are further analysed by using groupings of related MedDRA (Medical Dictionary for Regulatory Activities) preferred terms to better estimate the incidence of potentially treatment related adverse events. The incidence of all groupings for subjects categorised by dose (8 mg/day versus higher doses of 150 to 250 mg/day) is shown in the following Table EX2: […]

[1] = Higher Doses (150-250 mg/day) (N = 1037)
[2] = Higher Doses (150-250 mg/day) (N = 1037), All
[3] = Higher Doses (150-250 mg/day) (N = 1037), Severe Intensity

CN(C)c1ccc2c(c1)Sc1cc(N(C)C)ccc1N2 [LMTM, leuco-methylthioninium bis(hydromethanesulfonate)]
Grouped TEAE incidence: Affective/Anxiety Symptoms [1]: 55 (5.3%) n (%)
Grouped TEAE incidence: Anaemia [1]: 219 (21.1%) n (%)
Grouped TEAE incidence: Behavioral Symptoms [1]: 118 (11.4%) n (%)
Grouped TEAE incidence: Falls and Related Terms [1]: 202 (19.5%) n (%)
Grouped TEAE incidence: Hepatic Function Impairment [1]: 34 (3.3%) n (%)
Grouped TEAE incidence: Hypersensitivity [1]: 63 (6.1%) n (%)
Grouped TEAE incidence: Ischaemic Events, Inclusive of Myocardial Infarction [1]: 35 (3.4%) n (%)
Grouped TEAE incidence: Psychotic Symptoms [1]: 34 (3.3%) n (%)
Grouped TEAE incidence: Renal Function Impairment [1]: 42 (4.1%) n (%)
Grouped TEAE incidence: Renal and Urinary Disorders (Including Infections) [1]: 326 (31.4%) n (%)
Grouped TEAE incidence: Sleep Disorders [1]: 48 (4.6%) n (%)
Grouped TEAE incidence: Targeted Gastrointestinal Events [1]: 401 (38.7%) n (%)
No. (%) of Subjects Reporting at Least One TEAE [2]: 902 (87.0%) n (%)
TEAE incidence: Abdominal pain [2]: 30 (2.9%) n (%)
TEAE incidence: Abdominal pain upper [2]: 21 (2.0%) n (%)
TEAE incidence: Agitation [2]: 61 (5.9%) n (%)
TEAE incidence: Anaemia [2]: 59 (5.7%) n (%)
TEAE incidence: Anxiety [2]: 39 (3.8%) n (%)
TEAE incidence: Arthralgia [2]: 31 (3.0%) n (%)
TEAE incidence: Atrial fibrillation [2]: 10 (1.0%) n (%)
TEAE incidence: Back pain [2]: 44 (4.2%) n (%)
TEAE incidence: Blood creatine phosphokinase increased [2]: 31 (3.0%) n (%)
TEAE incidence: Blood folate decreased [2]: 76 (7.3%) n (%)
TEAE incidence: Bronchitis [2]: 19 (1.8%) n (%)
TEAE incidence: Cerebral microhaemorrhage [2]: 16 (1.5%) n (%)
TEAE incidence: Confusional state [2]: 45 (4.3%) n (%)
TEAE incidence: Constipation [2]: 24 (2.3%) n (%)
TEAE incidence: Contusion [2]: 15 (1.4%) n (%)
TEAE incidence: Cough [2]: 42 (4.1%) n (%)
TEAE incidence: Decreased appetite [2]: 39 (3.8%) n (%)
TEAE incidence: Dehydration [2]: 18 (1.7%) n (%)
TEAE incidence: Depression [2]: 37 (3.6%) n (%)
TEAE incidence: Diarrhoea [2]: 278 (26.8%) n (%)
TEAE incidence: Dizziness [2]: 64 (6.2%) n (%)
TEAE incidence: Dysuria [2]: 75 (7.2%) n (%)
TEAE incidence: Fall [2]: 78 (7.5%) n (%)
TEAE incidence: Fatigue [2]: 38 (3.7%) n (%)
TEAE incidence: Folate deficiency [2]: 45 (4.3%) n (%)
TEAE incidence: Haemoglobin decreased [2]: 34 (3.3%) n (%)
TEAE incidence: Hallucination [2]: 21 (2.0%) n (%)
TEAE incidence: Headache [2]: 61 (5.9%) n (%)
TEAE incidence: Hypertension [2]: 22 (2.1%) n (%)
TEAE incidence: Insomnia [2]: 32 (3.1%) n (%)
TEAE incidence: Laceration [2]: 14 (1.4%) n (%)
TEAE incidence: Micturition urgency [2]: 35 (3.4%) n (%)
TEAE incidence: Nasopharyngitis [2]: 43 (4.1%) n (%)
TEAE incidence: Nausea [2]: 86 (8.3%) n (%)
TEAE incidence: Oedema peripheral [2]: 20 (1.9%) n (%)
TEAE incidence: Pain in extremity [2]: 17(1.6%) n (%)
TEAE incidence: Pollakiuria [2]: 71 (6.8%) n (%)
TEAE incidence: Rash [2]: 30 (2.9%) n (%)
TEAE incidence: Suicidal ideation [2]: 30 (2.9%) n (%)
TEAE incidence: Syncope [2]: 28 (2.7%) n (%)
TEAE incidence: Tremor [2]: 13 (1.3%) n (%)
TEAE incidence: Upper respiratory tract infection [2]: 34 (3.3%) n (%)
TEAE incidence: Urinary incontinence [2]: 63 (6.1%) n (%)
TEAE incidence: Urinary tract infection [2]: 116 (11.2%) n (%)
TEAE incidence: Vitamin B12 decreased [2]: 21 (2.0%) n (%)
TEAE incidence: Vomiting [2]: 80 (7.7%) n (%)
TEAE incidence: Weight decreased [2]: 39 (3.8%) n (%)
No. (%) of Subjects Reporting at Least One TEAE [3]: 126 (12.2%) n (%)
TEAE incidence: Abdominal pain [3]: 1 (0.1%) n (%)
TEAE incidence: Abdominal pain upper [3]: 0 n (%)
TEAE incidence: Agitation [3]: 7 (0.7%) n (%)
TEAE incidence: Anaemia [3]: 0 n (%)
TEAE incidence: Anxiety [3]: 2 (0.2%) n (%)
TEAE incidence: Arthralgia [3]: 1 (0.1%) n (%)
TEAE incidence: Atrial fibrillation [3]: 2 (0.2%) n (%)
TEAE incidence: Back pain [3]: 2 (0.2%) n (%)
TEAE incidence: Blood creatine phosphokinase increased [3]: 0 n (%)
TEAE incidence: Blood folate decreased [3]: 0 n (%)
TEAE incidence: Bronchitis [3]: 0 n (%)
TEAE incidence: Cerebral microhaemorrhage [3]: 0 n (%)
TEAE incidence: Confusional state [3]: 2 (0.2%) n (%)
TEAE incidence: Constipation [3]: 1 (0.1%) n (%)
TEAE incidence: Contusion [3]: 0 n (%)
TEAE incidence: Cough [3]: 0 n (%)
TEAE incidence: Decreased appetite [3]: 1 (0.1%) n (%)
TEAE incidence: Dehydration [3]: 2 (0.2%) n (%)
TEAE incidence: Depression [3]: 2 (0.2%) n (%)
TEAE incidence: Diarrhoea [3]: 14 (1.4%) n (%)
TEAE incidence: Dizziness [3]: 2 (0.2%) n (%)
TEAE incidence: Dysuria [3]: 1 (0.1%) n (%)
TEAE incidence: Fall [3]: 7 (0.7%) n (%)
TEAE incidence: Fatigue [3]: 1 (0.1%) n (%)
TEAE incidence: Folate deficiency [3]: 0 n (%)
TEAE incidence: Haemoglobin decreased [3]: 0 n (%)
TEAE incidence: Hallucination [3]: 4 (0.4%) n (%)
TEAE incidence: Headache [3]: 3 (0.3%) n (%)
TEAE incidence: Hypertension [3]: 1 (0.1%) n (%)
TEAE incidence: Insomnia [3]: 0 n (%)
TEAE incidence: Laceration [3]: 1 (0.1%) n (%)
TEAE incidence: Micturition urgency [3]: 0 n (%)
TEAE incidence: Nasopharyngitis [3]: 0 n (%)
TEAE incidence: Nausea [3]: 1 (0.1%) n (%)
TEAE incidence: Oedema peripheral [3]: 0 n (%)
TEAE incidence: Pain in extremity [3]: 0 n (%)
TEAE incidence: Pollakiuria [3]: 2 (0.2%) n (%)
TEAE incidence: Rash [3]: 0 n (%)
TEAE incidence: Suicidal ideation [3]: 0 n (%)
TEAE incidence: Syncope [3]: 5 (0.5%) n (%)
TEAE incidence: Tremor [3]: 0 n (%)
TEAE incidence: Upper respiratory tract infection [3]: 0 n (%)
TEAE incidence: Urinary incontinence [3]: 1 (0.1%) n (%)
TEAE incidence: Urinary tract infection [3]: 3 (0.3%) n (%)
TEAE incidence: Vitamin B12 decreased [3]: 0 n (%)
TEAE incidence: Vomiting [3]: 3 (0.3%) n (%)
TEAE incidence: Weight decreased [3]: 0 n (%)
Grouped TEAE incidence: Affective/Anxiety Symptoms (LMTM 8 mg/day (N = 860)): 60 (7.0%) n (%)
Grouped TEAE incidence: Anaemia (LMTM 8 mg/day (N = 860)): 111 (12.9%) n (%)
